Measured values as given in US12599136B2, “Substituted isophthalic acid diamides and their use as herbicides” (Bayer Aktiengesellschaft, priority 2020, dated 2026).

Experiments:
Format in all cases: in vivo
[1] = test system: Setaria viridis; assay: Pre-emergence herbicidal action against SETVI; details: 80 g/ha
Summary of the method: (§1)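 Pre-emergence soil-surface spray of formulated compound (WP or EC; 600 to 800 l/ha; 0.2% wetting agent) over seeds sown in sandy loam. After 3 weeks under greenhouse conditions, damage is estimated visually in percent against untreated plants.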

[2] = test system: Avena fatua; assay: Post-emergence herbicidal action against AVEFA; details: 20 g/ha, visual assessment about 3 weeks after treatment
Summary of the method: (§2)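 Spray, one-leaf stage: WP or EC compound in water, 600–800 l/ha, 0.2% wetting agent. Plants held about 3 weeks in the greenhouse, then visually rated in percent of kill compared with untreated controls.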

[3] = test system: Viola tricolor; assay: Post-emergence herbicidal action against VIOTR; details: 20 g/ha
Summary of the method: as §2

[4] = test system: Matricaria inodora; assay: Pre-emergence herbicidal action against MATIN; details: visual score after 3 weeks vs untreated controls
Summary of the method: as §1

[5] = test system: Abutilon theophrasti; assay: Pre-emergence herbicidal action against ABUTH; details: visual score after 3 weeks vs untreated controls
Summary of the method: as §1

[6] = test system: Digitaria sanguinalis; assay: Post-emergence herbicidal action against DIGSA
Description: Seeds of monocotyledonous and dicotyledonous weed and crop plants are laid out in sandy loam soil in wood-fiber pots, covered with soil and cultivated in a greenhouse under good growth conditions. 2 to 3 weeks after sowing, the test plants are treated at the one-leaf stage. The compounds of the invention, formulated in the form of wettable powders (WP) or as emulsion concentrates (EC), are then sprayed onto the green parts of the plants in the form of an aqueous suspension or emulsion at a water application rate equivalent to 600 to 800 l/ha, with addition of 0.2% wetting agent. After the test plants have been left to stand in the greenhouse under optimal growth conditions for about 3 weeks, the action of the preparations is assessed visually in comparison to untreated controls (herbicidal action in percent (%): 100% activity=the plants have died, 0% activity=like control plants). […] The tables below illustrate, in an illustrative manner, the post-emergence herbicidal action of the compounds of the invention, the herbicidal activity being stated in percent.

[7] = test system: Alopecurus myosuroides; assay: Pre-emergence herbicidal action against ALOMY; details: 80 g/ha; visual score after 3 weeks vs untreated controls
Summary of the method: as §1

[8] = test system: Amaranthus retroflexus; assay: Pre-emergence herbicidal action against AMARE; details: visual score after 3 weeks vs untreated controls
Summary of the method: as §1

[9] = test system: Matricaria inodora; assay: Post-emergence herbicidal action against MATIN; details: visual assessment about 3 weeks after treatment
Summary of the method: as §2

[10] = test system: Amaranthus retroflexus; assay: Post-emergence herbicidal action against AMARE; details: visual assessment about 3 weeks after treatment
Summary of the method: as §2

[11] = test system: Viola tricolor; assay: Pre-emergence herbicidal action against VIOTR
Summary of the method: as §1

[12] = test system: Echinochloa crus-galli; assay: Pre-emergence herbicidal action against ECHCG; details: 80 g/ha; visual score after 3 weeks vs untreated controls
Summary of the method: as §1

[13] = test system: Abutilon theophrasti; assay: Post-emergence herbicidal action against ABUTH
Summary of the method: as §2

[14] = test system: Pharbitis purpurea; assay: Post-emergence herbicidal action against PHBPU; details: visual assessment about 3 weeks after treatment
Summary of the method: as §2

[15] = test system: Alopecurus myosuroides; assay: Post-emergence herbicidal action against ALOMY
Summary of the method: as §2

[16] = test system: Echinochloa crus-galli; assay: Post-emergence herbicidal action against ECHCG; details: 20 g/ha, visual assessment about 3 weeks after treatment
Summary of the method: as §2

[17] = test system: Veronica persica; assay: Post-emergence herbicidal action against VERPE; details: 20 g/ha, visual assessment about 3 weeks after treatment
Summary of the method: as §2

[18] = test system: Setaria viridis; assay: Post-emergence herbicidal action against SETVI; details: visual assessment about 3 weeks after treatment
Summary of the method: as §2

[19] = test system: Lolium rigidum; assay: Pre-emergence herbicidal action against LOLRI; details: 80 g/ha
Source text: Seeds of monocotyledonous and dicotyledonous weed plants and crop plants are laid out in sandy loam soil in wood-fiber pots and covered with soil. The compounds of the invention, formulated in the form of wettable powders (WP) or as emulsion concentrates (EC), are then applied to the surface of the covering soil in the form of an aqueous suspension or emulsion at a water application rate equivalent to 600 to 800 l/ha, with addition of 0.2% wetting agent. After the treatment, the pots are placed in a greenhouse and kept under good growth conditions for the trial plants. The damage to the test plants is scored visually after a test period of 3 weeks by comparison with untreated controls (herbicidal activity in percent (%): 100% activity=the plants have died, 0% activity=like control plants). […] The tables below illustrate, in an illustrative manner, the post-emergence herbicidal action of the compounds of the invention, the herbicidal activity being stated in percent.

[20] = test system: Avena fatua; assay: Pre-emergence herbicidal action against AVEFA; details: 80 g/ha; visual score after 3 weeks vs untreated controls
Summary of the method: as §1

[21] = test system: Veronica persica; assay: Pre-emergence herbicidal action against VERPE; details: 80 g/ha
Summary of the method: as §1

[22] = test system: Digitaria sanguinalis; assay: Pre-emergence herbicidal action against DIGSA
Summary of the method: as §1

| Compound | Pre-emergence action against SETVI [1] | Post-emergence action against AVEFA in % [2] | Post-emergence action against VIOTR in % [3] | Pre-emergence action against MATIN ([4]; 20 g/ha) | Pre-emergence action against MATIN ([4]; 80 g/ha) | Pre-emergence action against ABUTH ([5]; 20 g/ha) | Pre-emergence action against ABUTH ([5]; 80 g/ha) | Post-emergence action against DIGSA in % ([6]; 5 g/ha) | Post-emergence action against DIGSA in % ([6]; 20 g/ha) | Pre-emergence action against ALOMY [7] | Pre-emergence action against AMARE ([8]; 20 g/ha) | Pre-emergence action against AMARE ([8]; 80 g/ha) | Post-emergence action against MATIN in % ([9]; 20 g/ha) | Post-emergence action against AMARE in % ([10]; 5 g/ha) | Post-emergence action against AMARE in % ([10]; 20 g/ha) | Pre-emergence action against VIOTR ([11]; 80 g/ha) | Pre-emergence action against ECHCG [12] | Post-emergence action against ALOMY ([15]; 20 g/ha) | Post-emergence action against SETVI in % ([18]; 20 g/ha) | Pre-emergence action against AVEFA [20] | also measured |
| --- | --- | --- | --- | --- | --- | --- | --- | --- | --- | --- | --- | --- | --- | --- | --- | --- | --- | --- | --- | --- | --- |
| CCN(C)C(=O)c1c(C(F)F)ccc(C(=O)Nc2nnnn2C)c1Cl [Example 1-155] | 100% | 80% | 80% | 90% | 100% | 100% | 100% | 80% | 80% | 90% | 100% | 100% | 90% | 100% | 100% | 100% | 100% | 90% | 90% | 90% | Post-emergence action against ABUTH ([13]; 5 g/ha): 90%; Post-emergence action against ABUTH ([13]; 20 g/ha): 90%; Post-emergence action against PHBPU in % ([14]; 5 g/ha): 80%; Post-emergence action against PHBPU in % ([14]; 20 g/ha): 80%; Post-emergence action against ALOMY ([15]; 5 g/ha): 80%; Post-emergence action against ECHCG in % [16]: 90%; Post-emergence action against VERPE in % [17]: 80%; Post-emergence action against SETVI in % ([18]; 5 g/ha): 80%; Pre-emergence action against LOLRI [19]: 80%; Pre-emergence action against VERPE [21]: 90% |
| CN(C(=O)c1c(C(F)(F)F)ccc(C(=O)Nc2nnnn2C)c1Cl)C1CC1 [Example 1-125] | 100% | 80% | 80% |  | 100% | 100% | 100% |  | 100% | 100% | 100% | 100% | 80% | 80% | 90% | 100% | 90% | 90% | 80% | 80% | Pre-emergence action against VIOTR ([11]; 20 g/ha): 100%; Post-emergence action against ALOMY ([15]; 5 g/ha): 80%; Post-emergence action against VERPE in % [17]: 90%; Pre-emergence action against DIGSA ([22]; 20 g/ha): 100%; Pre-emergence action against DIGSA ([22]; 80 g/ha): 100% |
| CCN(C)C(=O)c1c(C(F)F)ccc(C(=O)Nc2nnnn2CC)c1Cl [Example 2-155] | 100% |  | 80% | 80% | 100% | 100% | 100% | 80% | 80% | 90% | 100% | 100% | 90% | 100% | 100% | 100% | 100% | 90% | 100% | 90% | Post-emergence action against MATIN in % ([9]; 5 g/ha): 80%; Post-emergence action against ABUTH ([13]; 5 g/ha): 80%; Post-emergence action against ABUTH ([13]; 20 g/ha): 90%; Post-emergence action against PHBPU in % ([14]; 5 g/ha): 80%; Post-emergence action against PHBPU in % ([14]; 20 g/ha): 80%; Post-emergence action against SETVI in % ([18]; 5 g/ha): 80%; Pre-emergence action against LOLRI [19]: 90%; Pre-emergence action against VERPE [21]: 90% |
